From patent publication US7604993B2, “Combined regulation of neural cell production” (Stem Cell Therapeutics Inc., priority 2001, dated 2009)
Entries after “also recorded” stand apart in the source; their conditions may differ. No end group written: not given here.

How the values were obtained:
[1] = Forelimb inhibition test in focal ischemic injury (stroke) model; format: in vivo; details: rats with focal ischemic injury; first infusion days 1-7, second infusion days 8-14
Source text: (§1) Adult male Long-Evans rats (250-350 g) were obtained from Charles River Breeding Farms and were adapted to the colony for two weeks prior to any treatment. A week before surgery the rats were given a baseline testing on the behavioral tests.
(§2) The animals for the stroke study received unilateral devascularization of the sensorimotor cortex. Using Isoflurane anesthesia, the skin was incised and retracted and the overlying fascia were removed from the skull. A skull opening was made at the following coordinates, taking care not to damage the dura: AP +4.0 to −2.0; L 1.5 to 4 (the parasagittal ridge; Kolb et al., 1997). The dura was cut and retracted from the skull opening. A cotton swab soaked in sterile saline was gently rubbed across the exposed pia and the vessels were removed. A hole was then drilled in the contralateral hemisphere to provide an opening for the cannulae attached to the osmotic minipump at AP −0.5; L 1.5. […]
(§3) Six days later the animals were assessed using the behavioral test. […]
In normal rats, swimming is accomplished by propulsion from the hind limbs. […] Inhibition of the forelimbs was assessed by filming animals while swimming. […]
(§4) The animals then received various test factors, and the effects of these factors on the forelimb inhibition test and brain anatomy were assessed. […]

[2] = Forelimb asymmetry test in focal ischemic injury (stroke) model; format: in vivo; details: rats with focal ischemic injury; first infusion days 1-7, second infusion days 8-14
Source text: as §1
as §2, with “removed.” for “removed. A hole was then drilled in the contralateral hemisphere to provide an opening for the cannulae attached to the osmotic minipump at AP −0.5; L 1.5.”
as §3
Forepaw asymmetry of the animals was determined by filming them from below while in an acrylic cylinder 25 cm in diameter, on an acrylic platform. Preference was determined by separately counting the number of times in 5 minutes that an animal reared and placed the left or right forepaw on the surface of the cylinder in a gesture of postural stabilization. […]
as §4

[3] = tested on: migrating neuronal progenitor cells; assay: Brain anatomical analysis (Cresyl Violet, Doublecortin) in focal ischemic injury (stroke) model; format: in vivo; details: rats with focal ischemic injury, end of week 6
Source text: The animals for the stroke study received unilateral devascularization of the sensorimotor cortex. Using Isoflurane anesthesia, the skin was incised and retracted and the overlying fascia were removed from the skull. A skull opening was made at the following coordinates, taking care not to damage the dura: AP +4.0 to −2.0; L 1.5 to 4 (the parasagittal ridge; Kolb et al., 1997). The dura was cut and retracted from the skull opening. A cotton swab soaked in sterile saline was gently rubbed across the exposed pia and the vessels were removed. A hole was then drilled in the contralateral hemisphere to provide an opening for the cannulae attached to the osmotic minipump at AP −0.5; L 1.5. An osmotic minipump was placed under the skin between the shoulder blades and a tube connected under the skin to the cannulae, which was attached to the skull with fast-drying cement. Once hemostasis had been achieved the scalp was sutured closed with 5-O sterile suture. The animals were given a single injection of Banamine (an analgesic) and returned to their home cage. Sham animals received only anesthesia, the bone opening, and the skin was incised and sutured. […] The animals then received various test factors, and the effects of these factors on the forelimb inhibition test and brain anatomy were assessed. […]

[4] = tested on: neural stem cells in the subventricular zone; assay: Subcutaneous administration, number of neural stem cells in the subventricular zone; format: in vivo
neurospheres = assay: Multipotency of neurospheres (neuron, oligodendrocyte, astrocyte derived from each neurosphere); format: cell-based; details: neurospheres produced in the factor(s)
Method: The protocols for neural stem cell culture are described in detail in U.S. Pat. No. 5,750,376 or Shingo et al., 2001. Briefly, embryonic neural stem cells were prepared from E14 medial and lateral ganglionic eminences. Adult neural stem cells were prepared from the subventricular zone of adult mice. The tissue was cultured in basal medium containing 20 ng/ml EGF, or other growth factors as indicated in each case, to form neurospheres. The composition of the basal medium is as follows: DMEM/F12 (1:1); glucose (0.6%); glutamine (2 mM); sodium bicarbonate (3 mM); HEPES (5 mM); insulin (25 μg/ml); transferrin (100 μg/ml); progesterone ([…]); putrescine (60 μM); and selenium chloride (30 nM).
Accordingly, we compared the expandability and multipotency of neurospheres that were produced in EGF alone or EGF plus CNTF. For expandability, pass 1 neurospheres were dissociated and replated at clonal density to generate pass 2 neurospheres, and the number of pass 2 neurospheres that were derived from a single pass 1 sphere was counted. […] Therefore, neural stem cells differentiate to glial cells by default, which can be inhibited by CNTF.

| Substance | forepaw inhibition / motor function in the forelimb inhibition test [1] | recovery of forelimb asymmetry / motor function in the forelimb asymmetry test [2] | doublecortin staining / doublecortin positive cells in the brain [3] | delivery by subcutaneous administration to modulate the number of neural stem cells in the subventricular zone [4] | glial cells generated by neurospheres, relative to those produced in EGF plus CNTF (neurospheres) [times] |
| --- | --- | --- | --- | --- | --- |
| growth hormone: growth hormone, first infusion days 1-7, then CSF (Group 5) | reversed effect | improvement of motor functions; also recorded: recovered from asymmetrical forelimb usage; also recorded: improved a motor neuron-related function; also recorded: reversed effect | increased doublecortin positive cells | effectively delivered |  |
| EGF: epidermal growth factor; human recombinant EGF for infusion (NSDSECPLSHDGYCLHDGVCMYIEALDKYACNCVVGYIGERCQYRDLKWWELR; UniProt P01133 971-1023, looked up) |  |  |  |  | 4 |
| IGF-1: IGF-1, a factor said to proliferate neural stem cells |  |  |  | effectively delivered |  |
| PACAP: pituitary adenylate cyclase activating polypeptide (HSDGIFTDSYSRYRKQMAVKKYLAAVLGKRYKQRVKNK; ends and bridges not checked; UniProt P18509 132-169, looked up) |  |  |  | effectively delivered |  |
